Source: patent US10118943B2, “Compounds and methods for inhibiting cell death” (Ramot at Tel-Aviv University Ltd., priority 2012, dated 2018)
Entries after “also recorded” stand apart in the source; their conditions may differ.

Assays:
[1] = tested on: ADNP+/− mice; experiment: Object recognition test in ADNP-deficient mice; format: in vivo, mouse; details: intranasal, twice a day, 1 month, ADNP+/− male mice
Source text: All procedures involving animals were approved by the Animal Care and Use Committee of Tel Aviv University and the National Institutes of Health (Bethesda, Md.). ADNP heterozygous mice, a model for cognitive impairments (Vulih-Shultzman et al., 2007, J. Pharmacol. Exp. Ther. 323:438-449), were housed in a 12-h light/12-h dark cycle facility, and free access to rodent chow and water was available.
SKIP (SEQ ID NO:6) treatment included daily intranasal administrations over a 1 month period to 5-month-old male mice (2 μg/5 μl/mouse/day). For intranasal administration, the peptide was dissolved in a vehicle solution, in which each milliliter included 7.5 mg of NaCl, 1.7 mg of citric acid monohydrate, 3 mg of disodium phosphate dihydrate, and 0.2 mg of benzalkonium chloride solution (50%). SKIP (SEQ ID NO:6) or vehicle solution (DD) was administered to mice hand-held in a semisupine position with nostrils facing the investigator. A pipette tip was used to administer 5 μl/each nostril. The mouse was handheld until the solution was totally absorbed (˜10 s). Nasal SKIP (SEQ ID NO:6) application was performed daily, twice a day, for 1 month (5 days a week). After 1 month, SKIP (SEQ ID NO:6) was applied 2 h before the behavioral tests (described below).
The test includes 2 consecutive days of habituation (five minutes per day) and the experimental day which consists of the three phases. The test was conducted two hours after the daily intranasal SKIP (SEQ ID NO:6). During the first phase (Phase 1, habituation phase), the open field apparatus (arena of 50×50 cm) contained two identical objects (samples) and a mouse was placed in the apparatus facing the wall and allowed to freely explore the objects. At the end of the 5-min session of Phase 1, the mouse was put back into its home cage for 3 hours. […] The time spent sniffing/touching each object was measured. The data was analyzed using the following formula: D1=b−a, when ‘a’ designated the time of exploration of the familiar object and ‘b’ designated the time of exploration of the novel object. […]

[2] = tested on: PC12 cells; experiment: PC12 cell survival assay, zinc toxicity, MTS (Example 1); details: 400 μM zinc, 4 hrs, peptide 10^−9M
Method: PC12 cells (Pheochromocytoma cells) (ATCC, Bethesda, Md., USA) were seeded at 3×10^4 cells/cm^2 on poly-L-Lysine coated plastic tissue culture dishes (Corning, Lowell, Mass., USA) to form an adherent monolayer. Cells were maintained in Dulbecco's modified Eagle's medium (DMEM) supplemented with 10% horse serum (HS), 5% fetal calf serum (FCS), 2 mM glutamine, 100 U/ml penicillin and […] streptomycin (Biological Industries, Beit Haemek, Israel). PC12 differentiation was induced by nerve growth factor (NGF, Sigma) at concentrations of 50 ng/ml by replacing half of the medium every other day until the cells acquired a differentiated morphology. Differentiated cells were defined as bearing two or more neurites with lengths equal to or more than twice the diameter of the cell body (P. Lamoureux et al., The Journal of cell biology 110, 71 (January, 1990)). The cells were incubated in 5% CO2 in a humidified incubator at 37° C. The cells were sub-cultured every 5 days at a 4:1 split ratio by pipetting. The medium was changed every 2 or 3 days after adhesion.
Transfections were performed using Lipofectamine RNAiMAX (Invitrogen). Transfection was carried out according to manufacturer's protocol. For rat MAPRE3 knockdown, PC12 cells or neurons were plated in growth medium without antibiotics at concentration of 10^4 cells/0.32 cm^2 such that they will be 30-50% confluent at the time of transfection. To obtain the highest transfection efficiency and low non-specific effects, siRNA transfection was performed in the following optimized conditions: 50 nM for neurons and 25 nM PC12 of each siRNA construct with 0.2 μl Lipofectamine RNAiMAX (Invitrogen) was added per well of the 96-well plate and scaled up for different 24 or 6-well plates, according to the manufacturer's instructions. The medium was changed one day after transfection. 48 and 72 hours later, cells were harvested to assay for gene knockdown at the RNA and protein levels.
The cells were incubated for 4 hrs at 37° C. 5% CO2. Survival was measured using the MTS assay.
Metabolic activity of cells was measured by the CellTiter 96® Aqueous Non-Radioactive Cell Proliferation kit in accordance with the manufacturer's instructions (Promega). The assay uses a colorimetric method for determining the number of viable cells employing a tetrazolium compound [3-(4,5-dimethylthiazol-2-yl)-5-(3-carboxymethoxyphenyl)-2-(4-sulfophenyl)-2H-tetrazolium, MTS] and an electron-coupling reagent, phenazine methosulfate (PMS). MTS is bio-reduced by cells into a formazan product that is detected at 490 nm. The conversion of MTS into the formazan form is accomplished by dehydrogenase enzymes found in metabolically active cells. Thus, the quantity of formazan product as measured by the amount of 490 nm absorbance is directly proportional to the number of living cells in culture (A. H. Cory, T. C. Owen, J. A. Barltrop, J. G. Cory, Cancer Commun 3, 207 (July, 1991)).

**Q.** Which “object recognition, Phase 2 short retention (discrimination index D1)” value [1] does the source give for “NAPVSKIPQ (synthetic novel peptide core sequence SKIP derived from hybrid microtubule end-binding protein 3 (EB3)- binding microtubule plus-end tracking proteins (+TIPs) and activity-dependent neurotrophic factor (ADNF) active core site (NAP))” here?
**A.** The value was “improved the memory”.

**Q.** And the “protection against cell death induced by zinc toxicity (MTS survival)” value [2]?
**A.** Its value is “provided protection against zinc toxicity; also recorded: significantly increased survival”.

**Q.** And the “protection against cell death induced by zinc toxicity (MTS survival)” value ([2]; listed as SKIP)?
**A.** The value was “significantly increased survival”.
